In ChEMBL document CHEMBL1201862, “PubChem BioAssay data set” (2004):
Active and inactive are the calls of the source.

Tests used:
Large T antigen = Large T antigen (Simian virus 40, UniProt P03070); format: functional, Betapolyomavirus macacae;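 further: Confirmatory-stage PubChem screen for compounds that inhibit SV40 T antigen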
[1] = target: 5-hydroxytryptamine receptor 2A (Mus musculus, UniProt P35363); format: functional, cell-based;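 further: CHO-K1 cells with tagged receptor and beta-arrestin; agonist potency measured as compound-induced activation of the receptor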
Sequence of 5-hydroxytryptamine receptor 2A (P35363 whole entry, the tested form may be a part): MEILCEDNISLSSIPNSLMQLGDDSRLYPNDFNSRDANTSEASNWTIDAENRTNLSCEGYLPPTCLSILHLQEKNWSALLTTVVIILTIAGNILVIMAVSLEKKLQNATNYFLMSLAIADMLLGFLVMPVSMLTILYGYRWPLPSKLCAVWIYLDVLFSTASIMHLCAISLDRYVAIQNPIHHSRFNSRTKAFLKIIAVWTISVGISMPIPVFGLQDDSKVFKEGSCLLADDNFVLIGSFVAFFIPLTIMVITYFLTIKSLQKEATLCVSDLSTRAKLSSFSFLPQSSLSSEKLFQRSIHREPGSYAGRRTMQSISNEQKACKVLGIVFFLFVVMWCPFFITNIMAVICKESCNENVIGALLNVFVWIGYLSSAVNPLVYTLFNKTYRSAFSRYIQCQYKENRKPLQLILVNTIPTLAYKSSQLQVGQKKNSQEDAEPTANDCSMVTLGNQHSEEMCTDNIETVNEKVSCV

[2] = target: T1, RNA-binding protein pos-1 (Caenorhabditis elegans, UniProt G5EF15); assay: disruptors of C. elegans POS-1 RNA interaction – biochemical, fluorescence polarization, dose response (AID 1964);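 further: purified POS-1 fused to maltose binding protein made in E. coli; potency of compounds blocking POS-1 binding to fluorescent RNA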
T1 sequence (G5EF15 whole entry): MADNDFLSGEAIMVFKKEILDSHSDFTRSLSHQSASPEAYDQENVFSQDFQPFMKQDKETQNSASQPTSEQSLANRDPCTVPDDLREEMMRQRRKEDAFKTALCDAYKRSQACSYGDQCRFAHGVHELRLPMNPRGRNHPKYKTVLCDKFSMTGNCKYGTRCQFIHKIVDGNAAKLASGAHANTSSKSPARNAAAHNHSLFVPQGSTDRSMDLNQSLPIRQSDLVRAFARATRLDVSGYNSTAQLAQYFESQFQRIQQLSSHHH

[3] = target: T2, Zinc finger protein mex-5 (Caenorhabditis elegans, UniProt Q9XUB2); assay: potency of MEX-5 RNA-binding blockers – biochemical, C. elegans, fluorescence polarization, dose response (AID 1960)
T2 sequence (Q9XUB2 whole entry): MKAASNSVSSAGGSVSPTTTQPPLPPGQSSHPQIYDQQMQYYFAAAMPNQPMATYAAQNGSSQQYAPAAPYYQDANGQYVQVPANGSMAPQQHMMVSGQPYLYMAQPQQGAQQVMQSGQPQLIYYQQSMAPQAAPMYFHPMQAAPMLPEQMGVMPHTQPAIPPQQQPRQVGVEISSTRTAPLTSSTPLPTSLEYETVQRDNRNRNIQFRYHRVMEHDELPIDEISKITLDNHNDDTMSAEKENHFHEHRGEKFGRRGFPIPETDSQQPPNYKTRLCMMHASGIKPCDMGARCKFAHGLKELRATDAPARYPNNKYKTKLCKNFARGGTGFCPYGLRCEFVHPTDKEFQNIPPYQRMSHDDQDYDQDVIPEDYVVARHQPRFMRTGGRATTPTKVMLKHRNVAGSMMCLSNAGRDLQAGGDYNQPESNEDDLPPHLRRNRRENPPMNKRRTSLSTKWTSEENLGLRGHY

[4] = viability of uninfected HEp-2 cells – cell-based, HTS, cytotoxicity control for RSV inhibitor project, dose response (AID 2410); format: functional; conditions: human respiratory syncytial virus
[5] = target: Glucose-6-phosphate 1-dehydrogenase (Homo sapiens, UniProt P11413); assay: inhibition of Homo sapiens G6PD, dose series – biochemical, fluorescence, selectivity assay for P. falciparum G6PD inhibitor project, dose response (AID 504792); format: functional
Sequence of Glucose-6-phosphate 1-dehydrogenase (P11413 whole entry): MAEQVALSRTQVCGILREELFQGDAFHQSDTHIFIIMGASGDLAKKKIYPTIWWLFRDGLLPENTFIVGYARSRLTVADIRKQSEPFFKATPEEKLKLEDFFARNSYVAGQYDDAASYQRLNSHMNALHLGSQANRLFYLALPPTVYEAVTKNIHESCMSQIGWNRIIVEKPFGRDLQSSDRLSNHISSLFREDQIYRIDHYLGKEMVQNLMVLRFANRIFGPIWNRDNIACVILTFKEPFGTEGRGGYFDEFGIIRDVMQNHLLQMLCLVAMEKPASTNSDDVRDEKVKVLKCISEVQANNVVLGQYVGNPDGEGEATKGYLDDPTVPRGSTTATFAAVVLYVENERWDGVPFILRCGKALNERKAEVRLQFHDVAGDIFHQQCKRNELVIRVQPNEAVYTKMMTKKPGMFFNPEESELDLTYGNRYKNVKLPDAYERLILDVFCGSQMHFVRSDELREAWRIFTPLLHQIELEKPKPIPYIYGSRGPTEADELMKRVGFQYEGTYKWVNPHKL

Mu-type opioid receptor = Mu-type opioid receptor (Homo sapiens, UniProt P35372); format: functional, cell-based;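 further: U2OS cells with beta-arrestin recruitment to OPRM1 by beta-gal complementation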
Sequence of Mu-type opioid receptor (P35372 whole entry): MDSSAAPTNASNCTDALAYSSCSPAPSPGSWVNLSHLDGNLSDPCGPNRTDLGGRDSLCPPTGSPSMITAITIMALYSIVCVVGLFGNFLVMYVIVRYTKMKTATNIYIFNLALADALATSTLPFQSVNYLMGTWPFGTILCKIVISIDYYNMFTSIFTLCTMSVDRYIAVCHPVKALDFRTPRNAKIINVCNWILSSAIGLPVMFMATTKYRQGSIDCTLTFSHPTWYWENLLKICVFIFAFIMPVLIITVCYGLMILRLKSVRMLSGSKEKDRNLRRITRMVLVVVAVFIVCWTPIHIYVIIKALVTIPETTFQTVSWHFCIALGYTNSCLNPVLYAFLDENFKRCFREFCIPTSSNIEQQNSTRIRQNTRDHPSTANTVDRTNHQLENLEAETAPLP

[6] = target: T3, Heat shock factor protein 1 (Mus musculus, UniProt P38532); assay: enhancement of HSF1-driven luciferase signal – cell-based, NIH3T3, luminescence, dose retest, confirmation (AID 435004); format: functional;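 further: stress induced by proteasome inhibitor MG132 added 30 min after compound; luciferase reporter driven by HSF1 response element in NIH3T3 cells; actives raise luminescence as potentiators of the MG132 stress response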
T3 sequence (P38532 whole entry): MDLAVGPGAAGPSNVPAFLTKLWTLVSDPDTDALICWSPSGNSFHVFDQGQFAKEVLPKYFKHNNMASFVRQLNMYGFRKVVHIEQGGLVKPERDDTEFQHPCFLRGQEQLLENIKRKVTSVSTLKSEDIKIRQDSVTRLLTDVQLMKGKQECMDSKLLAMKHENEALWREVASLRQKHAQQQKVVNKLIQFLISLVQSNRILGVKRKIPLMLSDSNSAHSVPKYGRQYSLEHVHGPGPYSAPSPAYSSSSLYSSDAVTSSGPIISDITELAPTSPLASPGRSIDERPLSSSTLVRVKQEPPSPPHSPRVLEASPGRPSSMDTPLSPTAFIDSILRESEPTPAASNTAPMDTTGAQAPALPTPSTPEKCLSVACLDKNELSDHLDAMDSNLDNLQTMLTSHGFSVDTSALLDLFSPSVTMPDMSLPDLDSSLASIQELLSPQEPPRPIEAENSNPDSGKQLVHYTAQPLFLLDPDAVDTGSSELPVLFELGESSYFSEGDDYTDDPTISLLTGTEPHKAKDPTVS

[7] = Counterscreen for activators of the function of SWI/SNF related, matrix associated, actin dependent regulator of chromatin, subfamily a, member 2 (SMARCA2, BRM): Luminescence-based cell-based high throughput dose response assay to identify non-selective compounds using the VP16 reporter assay.; format: functional
[8] = target: SWI/SNF-related matrix-associated actin-dependent regulator of chromatin subfamily A member 2 (Homo sapiens, UniProt P51531); assay: Luminescence-based cell-based high throughput dose response assay to identify activators of the function of SWI/SNF related, matrix associated, actin dependent regulator of chromatin, subfamily a, member 2 (SMARCA2, BRM).; format: functional
Beta-galactosidase = Beta-galactosidase (Escherichia coli, UniProt Q8VNN2); assay: Dose response counterscreen for EBI2 assay utilizing the enzyme, b-galactosidase.; format: functional
Sequence of Beta-galactosidase (Q8VNN2 whole entry): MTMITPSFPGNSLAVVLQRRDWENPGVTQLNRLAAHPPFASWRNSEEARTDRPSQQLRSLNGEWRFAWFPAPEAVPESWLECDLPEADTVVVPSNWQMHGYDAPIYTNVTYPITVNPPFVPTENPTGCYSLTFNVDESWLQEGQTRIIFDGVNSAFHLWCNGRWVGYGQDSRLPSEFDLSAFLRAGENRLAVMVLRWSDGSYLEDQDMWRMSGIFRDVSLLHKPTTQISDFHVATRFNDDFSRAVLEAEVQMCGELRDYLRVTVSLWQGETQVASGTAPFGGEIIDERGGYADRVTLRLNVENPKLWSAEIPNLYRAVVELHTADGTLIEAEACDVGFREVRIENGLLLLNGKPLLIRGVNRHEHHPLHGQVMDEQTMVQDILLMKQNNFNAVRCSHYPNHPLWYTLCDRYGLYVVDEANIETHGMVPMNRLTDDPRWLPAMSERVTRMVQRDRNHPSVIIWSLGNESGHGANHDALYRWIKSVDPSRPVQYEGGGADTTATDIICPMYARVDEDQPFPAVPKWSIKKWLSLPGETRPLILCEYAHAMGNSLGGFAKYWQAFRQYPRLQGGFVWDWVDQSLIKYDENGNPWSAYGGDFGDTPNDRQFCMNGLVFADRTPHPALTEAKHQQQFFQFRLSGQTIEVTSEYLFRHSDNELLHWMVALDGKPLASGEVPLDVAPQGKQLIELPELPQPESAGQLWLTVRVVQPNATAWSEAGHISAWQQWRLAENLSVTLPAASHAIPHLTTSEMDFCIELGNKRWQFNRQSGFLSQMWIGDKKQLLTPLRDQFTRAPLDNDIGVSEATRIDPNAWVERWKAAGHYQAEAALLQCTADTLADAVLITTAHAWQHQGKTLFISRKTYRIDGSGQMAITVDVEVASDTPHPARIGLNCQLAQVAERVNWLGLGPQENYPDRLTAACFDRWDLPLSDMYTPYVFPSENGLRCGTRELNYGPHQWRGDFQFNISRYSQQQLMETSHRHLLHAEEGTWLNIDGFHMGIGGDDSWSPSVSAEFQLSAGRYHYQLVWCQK

[9] = target: T4, Corticotropin-releasing factor receptor 2/Corticotropin-releasing factor-binding protein (Homo sapiens, UniProt P24387+Q13324); assay: Dose Response confirmation of uHTS hits for small molecule antagonists of the CRF-binding protein and CRF-R2 receptor complex.; format: functional; conditions: read-out: IC50_Mean
T4 sequence (Q13324 whole entry): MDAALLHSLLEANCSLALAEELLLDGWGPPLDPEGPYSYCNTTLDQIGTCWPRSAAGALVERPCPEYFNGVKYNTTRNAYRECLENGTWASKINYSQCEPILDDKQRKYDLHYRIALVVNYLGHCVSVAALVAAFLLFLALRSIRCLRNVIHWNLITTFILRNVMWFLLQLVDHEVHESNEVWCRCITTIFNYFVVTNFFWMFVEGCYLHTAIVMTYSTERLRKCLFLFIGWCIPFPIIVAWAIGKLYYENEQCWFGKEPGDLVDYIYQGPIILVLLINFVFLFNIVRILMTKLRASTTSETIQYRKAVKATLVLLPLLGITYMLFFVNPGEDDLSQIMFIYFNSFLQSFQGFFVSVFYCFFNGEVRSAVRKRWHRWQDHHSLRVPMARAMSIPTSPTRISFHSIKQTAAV
T4 sequence (P24387 whole entry): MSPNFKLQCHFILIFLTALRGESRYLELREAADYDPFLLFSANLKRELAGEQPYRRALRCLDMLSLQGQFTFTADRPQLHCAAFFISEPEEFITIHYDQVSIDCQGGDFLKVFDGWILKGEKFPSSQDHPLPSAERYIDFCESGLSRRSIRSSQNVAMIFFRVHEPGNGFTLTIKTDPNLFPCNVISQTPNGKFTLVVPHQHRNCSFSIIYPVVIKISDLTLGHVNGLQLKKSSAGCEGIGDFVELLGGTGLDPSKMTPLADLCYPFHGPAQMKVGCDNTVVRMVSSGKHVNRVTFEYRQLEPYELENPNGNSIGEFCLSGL

[10] = target: T4, Corticotropin-releasing factor receptor 2/Corticotropin-releasing factor-binding protein; assay: activators of CRF receptor 2 with binding protein – uHTS hits, confirmation (AID 602473); format: functional; conditions: read-out: EC50_Mean
Protein RecA = target: T5, Protein RecA (Mycobacterium tuberculosis, UniProt P9WHJ3); assay: Fluorescence Cell-Free Homogeneous Dose Retest to Identify Inhibitors of RecA-Intein Splicing Activity. [Related pubchem assays (depositor defined):AID2097, AID2223, AID489010, AID492950]; format: functional
T5 sequence (P9WHJ3 whole entry): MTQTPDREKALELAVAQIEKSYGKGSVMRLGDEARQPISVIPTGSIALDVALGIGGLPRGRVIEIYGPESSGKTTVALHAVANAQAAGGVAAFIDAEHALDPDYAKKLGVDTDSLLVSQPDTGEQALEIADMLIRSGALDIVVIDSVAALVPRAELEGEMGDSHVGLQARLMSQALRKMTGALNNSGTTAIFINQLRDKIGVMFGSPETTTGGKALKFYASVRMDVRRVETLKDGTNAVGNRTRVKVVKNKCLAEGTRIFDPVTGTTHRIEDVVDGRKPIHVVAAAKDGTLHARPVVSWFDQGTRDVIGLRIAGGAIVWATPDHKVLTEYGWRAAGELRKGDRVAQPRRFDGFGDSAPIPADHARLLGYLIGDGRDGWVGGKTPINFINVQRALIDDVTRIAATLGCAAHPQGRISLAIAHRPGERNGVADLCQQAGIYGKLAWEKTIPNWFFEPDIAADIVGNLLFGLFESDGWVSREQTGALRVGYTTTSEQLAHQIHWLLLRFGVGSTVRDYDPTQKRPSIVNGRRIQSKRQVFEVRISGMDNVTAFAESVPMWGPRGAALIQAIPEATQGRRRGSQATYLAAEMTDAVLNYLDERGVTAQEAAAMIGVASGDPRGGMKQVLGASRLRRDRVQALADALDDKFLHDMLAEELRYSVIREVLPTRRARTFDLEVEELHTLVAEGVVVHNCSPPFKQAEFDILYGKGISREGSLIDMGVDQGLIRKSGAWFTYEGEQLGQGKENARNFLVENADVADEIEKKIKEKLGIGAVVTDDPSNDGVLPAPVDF

[11] = target: T6, Replicative DNA helicase DnaB (Mycobacterium tuberculosis, UniProt P9WMR3); assay: DnaB intein splicing inhibitors, dose response, biochemical, cell-free fluorescence (AID 449749); format: functional
T6 sequence (P9WMR3 whole entry): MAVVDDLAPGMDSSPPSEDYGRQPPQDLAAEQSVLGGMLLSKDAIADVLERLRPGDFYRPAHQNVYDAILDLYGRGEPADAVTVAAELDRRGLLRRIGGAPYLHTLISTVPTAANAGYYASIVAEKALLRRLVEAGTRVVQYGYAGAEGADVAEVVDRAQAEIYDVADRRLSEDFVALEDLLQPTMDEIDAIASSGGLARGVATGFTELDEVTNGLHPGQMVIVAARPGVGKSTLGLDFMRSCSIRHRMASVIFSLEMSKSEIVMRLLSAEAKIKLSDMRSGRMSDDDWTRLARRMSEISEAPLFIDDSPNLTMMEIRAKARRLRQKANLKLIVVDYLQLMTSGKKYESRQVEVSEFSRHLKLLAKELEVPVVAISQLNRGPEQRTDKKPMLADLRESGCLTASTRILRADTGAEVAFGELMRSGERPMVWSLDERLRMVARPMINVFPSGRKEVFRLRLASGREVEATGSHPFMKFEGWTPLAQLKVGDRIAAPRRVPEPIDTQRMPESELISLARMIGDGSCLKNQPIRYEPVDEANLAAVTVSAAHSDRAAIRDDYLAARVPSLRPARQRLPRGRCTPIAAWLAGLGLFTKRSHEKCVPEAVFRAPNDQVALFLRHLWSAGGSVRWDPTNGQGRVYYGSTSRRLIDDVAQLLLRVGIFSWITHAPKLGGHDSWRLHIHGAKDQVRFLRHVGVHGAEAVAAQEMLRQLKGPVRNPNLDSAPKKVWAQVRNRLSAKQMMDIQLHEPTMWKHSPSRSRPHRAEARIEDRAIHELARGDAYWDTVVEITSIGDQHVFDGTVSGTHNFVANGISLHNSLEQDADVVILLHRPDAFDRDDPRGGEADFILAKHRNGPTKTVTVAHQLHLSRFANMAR

Cytochrome P450 2D6 = Cytochrome P450 2D6 (Homo sapiens, UniProt P10635);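 further: CYP2D6 member of a cytochrome P450 panel assay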
Sequence of Cytochrome P450 2D6 (P10635 whole entry): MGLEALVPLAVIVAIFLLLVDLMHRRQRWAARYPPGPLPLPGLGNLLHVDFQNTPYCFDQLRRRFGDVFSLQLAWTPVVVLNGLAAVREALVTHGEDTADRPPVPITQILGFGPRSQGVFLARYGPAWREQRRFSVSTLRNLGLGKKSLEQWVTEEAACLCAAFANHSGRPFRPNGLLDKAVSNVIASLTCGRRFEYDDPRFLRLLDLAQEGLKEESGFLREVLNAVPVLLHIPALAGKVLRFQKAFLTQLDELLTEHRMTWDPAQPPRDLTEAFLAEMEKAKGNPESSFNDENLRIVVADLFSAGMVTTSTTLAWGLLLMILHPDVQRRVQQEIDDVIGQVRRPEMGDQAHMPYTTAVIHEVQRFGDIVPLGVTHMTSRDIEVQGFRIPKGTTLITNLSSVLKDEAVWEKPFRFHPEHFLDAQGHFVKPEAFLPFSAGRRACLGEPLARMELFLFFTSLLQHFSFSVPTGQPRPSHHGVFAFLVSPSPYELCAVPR

Cytochrome P450 1A2 = target: T7, Cytochrome P450 1A2 (Homo sapiens, UniProt P05177);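 further: PubChem cytochrome P450 panel assay, CYP1A2 panel member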
T7 sequence (P05177 whole entry): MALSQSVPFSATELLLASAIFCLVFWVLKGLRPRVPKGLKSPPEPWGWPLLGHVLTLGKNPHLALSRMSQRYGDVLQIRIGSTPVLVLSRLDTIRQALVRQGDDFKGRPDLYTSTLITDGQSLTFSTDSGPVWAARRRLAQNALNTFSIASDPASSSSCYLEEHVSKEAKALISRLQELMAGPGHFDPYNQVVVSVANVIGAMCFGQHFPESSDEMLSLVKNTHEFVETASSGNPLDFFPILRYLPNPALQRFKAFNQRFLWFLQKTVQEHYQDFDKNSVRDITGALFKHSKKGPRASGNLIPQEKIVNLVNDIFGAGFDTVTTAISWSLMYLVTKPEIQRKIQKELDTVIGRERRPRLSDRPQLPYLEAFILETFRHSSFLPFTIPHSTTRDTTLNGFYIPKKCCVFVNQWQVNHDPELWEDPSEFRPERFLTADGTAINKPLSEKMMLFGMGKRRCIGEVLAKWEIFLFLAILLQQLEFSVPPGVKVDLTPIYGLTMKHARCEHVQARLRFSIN

Cytochrome P450 2C9 = Cytochrome P450 2C9 (Homo sapiens, UniProt P11712)
Sequence of Cytochrome P450 2C9 (P11712 whole entry): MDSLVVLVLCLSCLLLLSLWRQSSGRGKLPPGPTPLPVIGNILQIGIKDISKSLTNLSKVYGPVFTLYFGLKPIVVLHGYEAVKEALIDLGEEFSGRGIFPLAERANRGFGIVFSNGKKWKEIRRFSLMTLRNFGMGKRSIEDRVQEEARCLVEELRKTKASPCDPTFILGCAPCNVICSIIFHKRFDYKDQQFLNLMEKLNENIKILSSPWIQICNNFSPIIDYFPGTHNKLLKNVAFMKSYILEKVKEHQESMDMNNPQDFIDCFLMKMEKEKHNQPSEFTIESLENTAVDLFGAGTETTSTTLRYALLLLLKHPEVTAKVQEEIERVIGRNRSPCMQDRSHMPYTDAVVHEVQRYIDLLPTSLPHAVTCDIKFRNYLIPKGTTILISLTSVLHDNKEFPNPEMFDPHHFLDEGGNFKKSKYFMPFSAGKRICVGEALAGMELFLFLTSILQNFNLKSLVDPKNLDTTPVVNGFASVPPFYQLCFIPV

Cytochrome P450 2C19 = Cytochrome P450 2C19 (Homo sapiens, UniProt P33261); assay: Cytochrome panel assay with activity outcomes. Panel member name: p450-cyp2c19 Compounds with AC50 equal or less than 10 uM are considered active; format: functional
Sequence of Cytochrome P450 2C19 (P33261 whole entry): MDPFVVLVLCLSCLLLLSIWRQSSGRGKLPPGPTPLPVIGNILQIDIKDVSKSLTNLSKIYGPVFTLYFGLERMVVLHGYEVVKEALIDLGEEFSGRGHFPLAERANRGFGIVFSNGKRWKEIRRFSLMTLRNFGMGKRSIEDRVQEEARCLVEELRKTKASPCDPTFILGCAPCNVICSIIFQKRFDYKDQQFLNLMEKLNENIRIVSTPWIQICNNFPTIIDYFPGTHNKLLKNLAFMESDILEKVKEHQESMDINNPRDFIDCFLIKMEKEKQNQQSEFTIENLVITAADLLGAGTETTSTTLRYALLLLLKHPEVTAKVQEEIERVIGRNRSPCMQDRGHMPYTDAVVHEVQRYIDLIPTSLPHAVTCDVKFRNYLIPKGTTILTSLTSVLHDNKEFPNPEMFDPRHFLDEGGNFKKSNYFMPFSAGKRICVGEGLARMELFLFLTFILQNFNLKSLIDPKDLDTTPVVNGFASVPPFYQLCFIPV

[12] = reduced cellular PGC1a acetyl-lysine signal – cell-based, cherry-picked samples, dose response (AID 720514); format: functional;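 further: potency may reflect raised or lowered acetylation signal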

Sequence of Large T antigen (P03070 whole entry): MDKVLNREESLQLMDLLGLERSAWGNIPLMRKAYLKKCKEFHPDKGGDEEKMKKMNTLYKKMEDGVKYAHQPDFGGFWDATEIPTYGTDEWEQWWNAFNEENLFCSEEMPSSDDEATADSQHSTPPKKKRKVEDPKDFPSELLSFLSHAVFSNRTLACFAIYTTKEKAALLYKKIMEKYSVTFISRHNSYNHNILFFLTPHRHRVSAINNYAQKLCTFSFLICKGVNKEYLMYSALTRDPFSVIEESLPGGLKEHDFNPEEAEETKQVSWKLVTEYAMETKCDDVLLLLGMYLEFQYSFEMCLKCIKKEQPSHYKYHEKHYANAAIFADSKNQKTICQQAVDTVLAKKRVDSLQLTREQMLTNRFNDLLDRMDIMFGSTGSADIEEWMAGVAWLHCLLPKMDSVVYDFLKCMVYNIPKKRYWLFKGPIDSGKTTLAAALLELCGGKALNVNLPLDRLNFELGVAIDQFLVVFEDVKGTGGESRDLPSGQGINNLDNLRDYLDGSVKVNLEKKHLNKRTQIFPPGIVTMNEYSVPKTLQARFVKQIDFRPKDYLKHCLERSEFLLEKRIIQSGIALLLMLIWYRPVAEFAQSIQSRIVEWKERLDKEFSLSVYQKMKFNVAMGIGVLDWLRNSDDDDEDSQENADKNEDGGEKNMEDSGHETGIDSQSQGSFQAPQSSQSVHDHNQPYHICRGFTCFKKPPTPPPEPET

CN1CCc2cc(O)cc3c2[C@H]1Cc1ccc(O)c(O)c1-3
IC50 (Large T antigen): 9.43 µM (active)
EC50 [1]: 0.0112 µM (active)
EC50 [2]: 5.41 µM (active)
EC50 [3]: 3.17 µM (active)
CC50 [4]: 16 µM (active)
IC50 [5]: 63 µM (inactive)
EC50 (Mu-type opioid receptor): 92.4 µM (inactive)

Cc1ccc(C(=O)CNc2ccc(Cl)cc2)cc1
EC50 [6]: > 260 µM (inactive)
EC50 [7]: > 91.2 µM (inactive)
EC50 [8]: > 91.2 µM (inactive)
IC50 (Beta-galactosidase): 130 µM (inactive)

CCC(C)c1ccc(NC(=S)Nc2ccc(OC)cc2)cc1 (configuration not stated)
IC50 [9]: > 47.1 µM (inactive)
EC50 [10]: > 53 µM (inactive)
IC50 (Beta-galactosidase): > 80 µM (inactive)

COc1ccc(-c2cc(C(=O)N3CCN(C(c4ccccc4)c4ccccc4)CC3)no2)cc1
IC50 (Beta-galactosidase): > 80 µM (inactive)

CC(C)C[C@H]1C(=O)N2CCC[C@H]2[C@]2(O)O[C@](NC(=O)[C@@H]3C=C4c5cccc6[nH]c(Br)c(c56)CC4N(C)C3)(C(C)C)C(=O)N12 (some centres not stated)
EC50 [1]: 0.0038 µM (active)
EC50 (Protein RecA): > 380 µM (inactive)
AC50 [11]: > 380 µM (inactive)
EC50 (Mu-type opioid receptor): 92.5 µM (inactive)

CCS(=O)(=O)N1CCC(C(=O)NCCCN2CCN(c3ccccc3F)CC2)CC1
EC50 [1]: 76.1 µM (inactive)
AC50 (Cytochrome P450 2D6): 15.8 µM (inconclusive)
AC50 (Cytochrome P450 1A2): 1.26 µM (inconclusive)
AC50 (Cytochrome P450 2C9): inconclusive
EC50 (Mu-type opioid receptor): 92.5 µM (inactive)
AC50 (Cytochrome P450 2C19): inconclusive

Cc1ccc2[nH]c(C(=O)N3CCN(C(c4ccccc4)c4ccccc4)CC3)cc2c1
IC50 (Beta-galactosidase): > 80 µM (inactive)

C[C@@H]1CN([C@@H](C)CO)C(=O)c2cc(NC(=O)CCCN(C)C)ccc2O[C@@H](C)CCCCO[C@@H]1CN(C)Cc1ccc(C(F)(F)F)cc1
AC50 [12]: 37.9 µM (active)
